Assay results from PubChem BioAssay AID256 (DTP/NCI, 2004).
Inconclusive results and toxic doses are left out. Rule for the calls: active = survival T/C of 150% or more; inactive = T/C below 125% in these data.

Test system: CD2F1 mice, L1210 leukemia ip, survival T/C
Assay: NCI In Vivo Anticancer Drug Screen. Data for tumor model L1210 Leukemia (intraperitoneal) in CD2F1 (CDF1) mice
Details: higher = longer survival
In short: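 Ratio T/C, where T is the treated-group value and C the vehicle-dosed control value, from mice implanted with a transplantable tumor.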

Measured: T/C

O=S(CCCl)CCCl
inactive: endpoint: mean survival time, dose: 0.5 mg/kg/injection, schedule: Q01DX009 (ip), vehicle: Klucel (hydroxypropylcellulose) (HPC) 93 % of control | endpoint: mean survival time, dose: 0.5 mg/kg/injection, schedule: Q04DX003 (ip), vehicle: Klucel (hydroxypropylcellulose) (HPC) 98 % of control | endpoint: mean survival time, dose: 1.0 mg/kg/injection, schedule: Q01DX009 (ip), vehicle: Klucel (hydroxypropylcellulose) (HPC) 101 % of control | endpoint: mean survival time, dose: 1.0 mg/kg/injection, schedule: Q04DX003 (ip), vehicle: Klucel (hydroxypropylcellulose) (HPC) 100 % of control | endpoint: mean survival time, dose: 1.56 mg/kg/injection, schedule: Q01DX009 (ip), vehicle: Klucel (hydroxypropylcellulose) (HPC) 109 % of control | endpoint: mean survival time, dose: 2.0 mg/kg/injection, schedule: Q01DX009 (ip), vehicle: Klucel (hydroxypropylcellulose) (HPC) 96 % of control | endpoint: mean survival time, dose: 2.0 mg/kg/injection, schedule: Q04DX003 (ip), vehicle: Klucel (hydroxypropylcellulose) (HPC) 98 % of control | endpoint: mean survival time, dose: 3.12 mg/kg/injection, schedule: Q01DX009 (ip), vehicle: Klucel (hydroxypropylcellulose) (HPC) 100 % of control | endpoint: mean survival time, dose: 4.0 mg/kg/injection, schedule: Q01DX009 (ip), vehicle: Klucel (hydroxypropylcellulose) (HPC) 106 % of control | endpoint: mean survival time, dose: 4.0 mg/kg/injection, schedule: Q04DX003 (ip), vehicle: Klucel (hydroxypropylcellulose) (HPC) 102 % of control | endpoint: mean survival time, dose: 6.25 mg/kg/injection, schedule: Q01DX009 (ip), vehicle: Klucel (hydroxypropylcellulose) (HPC) 104 % of control | endpoint: mean survival time, dose: 8.0 mg/kg/injection, schedule: Q01DX009 (ip), vehicle: Klucel (hydroxypropylcellulose) (HPC) 100 % of control | endpoint: mean survival time, dose: 8.0 mg/kg/injection, schedule: Q04DX003 (ip), vehicle: Klucel (hydroxypropylcellulose) (HPC) 98 % of control | endpoint: mean survival time, dose: 12.5 mg/kg/injection, schedule: Q01DX009 (ip), vehicle: Klucel (hydroxypropylcellulose) (HPC) 102 % of control | endpoint: mean survival time, dose: 16.0 mg/kg/injection, schedule: Q01DX009 (ip), vehicle: Klucel (hydroxypropylcellulose) (HPC) 100 % of control | endpoint: mean survival time, dose: 16.0 mg/kg/injection, schedule: Q04DX003 (ip), vehicle: Klucel (hydroxypropylcellulose) (HPC) 100 % of control | endpoint: mean survival time, dose: 25.0 mg/kg/injection, schedule: Q01DX009 (ip), vehicle: Klucel (hydroxypropylcellulose) (HPC) 103 % of control | endpoint: mean survival time, dose: 32.0 mg/kg/injection, schedule: Q04DX003 (ip), vehicle: Klucel (hydroxypropylcellulose) (HPC) 106 % of control

CC1(C)CCOC1=O
inactive: endpoint: mean survival time, dose: 100.0 mg/kg/injection, schedule: Q01DX001 (ip), vehicle: saline 105 % of control | endpoint: mean survival time, dose: 200.0 mg/kg/injection, schedule: Q01DX001 (ip), vehicle: saline 103 % of control | endpoint: mean survival time, dose: 400.0 mg/kg/injection, schedule: Q01DX001 (ip), vehicle: saline 103 % of control

CCCCCCCCCCCOc1ccc(Cl)cc1Cl
inactive: endpoint: mean survival time, dose: 100.0 mg/kg/injection, schedule: Q04DX002 (ip), vehicle: saline with Tween-80 90 % of control | endpoint: mean survival time, dose: 200.0 mg/kg/injection, schedule: Q04DX002 (ip), vehicle: saline with Tween-80 93 % of control | endpoint: mean survival time, dose: 400.0 mg/kg/injection, schedule: Q04DX002 (ip), vehicle: saline with Tween-80 86 % of control

Cc1c(O)ccc([N+](=O)[O-])c1O
inactive: endpoint: mean survival time, dose: 12.5 mg/kg/injection, schedule: Q04DX003 (ip), vehicle: saline with Tween-80 107 % of control | endpoint: mean survival time, dose: 25.0 mg/kg/injection, schedule: Q04DX003 (ip), vehicle: saline with Tween-80 102 % of control

C[As](C)SCC1OC(n2ncc(=O)[nH]c2=O)C2OC(C)(C)OC12 (centres undefined)
inactive: endpoint: median survival time, dose: 12.5 mg/kg/injection, schedule: Q01DX005 (ip), vehicle: distilled water + Tween-80 97 % of control | endpoint: median survival time, dose: 25.0 mg/kg/injection, schedule: Q01DX005 (ip), vehicle: distilled water + Tween-80 105 % of control | endpoint: median survival time, dose: 50.0 mg/kg/injection, schedule: Q01DX005 (ip), vehicle: distilled water + Tween-80 94 % of control | endpoint: median survival time, dose: 100.0 mg/kg/injection, schedule: Q01DX005 (ip), vehicle: distilled water + Tween-80 101 % of control | endpoint: median survival time, dose: 200.0 mg/kg/injection, schedule: Q01DX005 (ip), vehicle: distilled water + Tween-80 101 % of control

CCOC(=O)c1ccc(NC(=O)c2ccc(OCCOc3ccc(C(C)(C)CC(C)(C)C)cc3)c(NC(=O)CC(=O)c3cccc([N+](=O)[O-])c3)c2)cc1
inactive: endpoint: mean survival time, dose: 100.0 mg/kg/injection, schedule: Q01DX009 (ip), vehicle: Klucel (hydroxypropylcellulose) (HPC) 92 % of control | endpoint: mean survival time, dose: 100.0 mg/kg/injection, schedule: Q04DX003 (ip), vehicle: Klucel (hydroxypropylcellulose) (HPC) 111 % of control | endpoint: mean survival time, dose: 200.0 mg/kg/injection, schedule: Q01DX009 (ip), vehicle: Klucel (hydroxypropylcellulose) (HPC) 92 % of control | endpoint: mean survival time, dose: 200.0 mg/kg/injection, schedule: Q04DX003 (ip), vehicle: Klucel (hydroxypropylcellulose) (HPC) 100 % of control | endpoint: mean survival time, dose: 400.0 mg/kg/injection, schedule: Q01DX009 (ip), vehicle: Klucel (hydroxypropylcellulose) (HPC) 103 % of control | endpoint: mean survival time, dose: 400.0 mg/kg/injection, schedule: Q04DX003 (ip), vehicle: Klucel (hydroxypropylcellulose) (HPC) 102 % of control

CCCCOC(=S)SCCSC(=S)OCCCC
inactive: endpoint: mean survival time, dose: 100.0 mg/kg/injection, schedule: Q01DX009 (ip), vehicle: saline with Tween-80 101 % of control | endpoint: mean survival time, dose: 200.0 mg/kg/injection, schedule: Q01DX009 (ip), vehicle: saline with Tween-80 98 % of control
